Among the data in patent US8354422B2, “Pyrimidine inhibitors of kinase activity” (Abbott Laboratories Inc., priority 2009, dated 2013) are IC50 values, retold here.

One may read the IC50 as the concentration needed to halve the response being measured.

Bounds are passed on as bounds.

The experiment deals with T1, C-terminal GST-tagged, recombinant, human IGF-1R, amino acids 954-1367 (Homo sapiens, UniProt P08069).
T1 construct: human IGF-1R, amino acids 954-1367 expressed by baculovirus in Sf21 cells; GST (C); purchased Cell Signaling Technology; host or cells: baculovirus in Sf21 cells
T1 sequence (P08069 954-1367): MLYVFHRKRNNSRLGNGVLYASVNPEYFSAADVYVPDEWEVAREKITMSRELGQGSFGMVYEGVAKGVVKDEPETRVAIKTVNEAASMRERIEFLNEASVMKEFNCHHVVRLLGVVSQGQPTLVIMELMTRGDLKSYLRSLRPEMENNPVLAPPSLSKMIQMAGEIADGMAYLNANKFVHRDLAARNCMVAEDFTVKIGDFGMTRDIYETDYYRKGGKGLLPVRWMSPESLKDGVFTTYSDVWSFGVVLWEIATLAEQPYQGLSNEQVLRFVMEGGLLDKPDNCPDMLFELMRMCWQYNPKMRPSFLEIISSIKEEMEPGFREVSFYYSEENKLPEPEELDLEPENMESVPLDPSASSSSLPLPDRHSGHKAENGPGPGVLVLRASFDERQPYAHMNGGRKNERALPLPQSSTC
Kind of experiment: IGF-1R kinase activity, homogenous time-resolved fluorescence (HTRF) in vitro kinase assay. The note with it: IGF-1R kinase HTRF assay, ATP 50 μM, biotinylated peptide substrate 0.5 μM, 60 minutes at room temperature. It counts as biochemical. A digest of the protocol:
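HTRF assay with baculovirus/Sf21-expressed enzyme, 50 μM ATP, 0.5 μM biotinylated peptide substrate, 2% DMSO, in HEPES pH 7.5 buffer with MgCl2, 2 mM MnCl2, BSA, DTT; 60 min at room temperature. EDTA-quenched, detected with streptavidin-APC and Eu-cryptate anti-phosphotyrosine mAb; 615/665 nm ratio used for IC50.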
As for `COc1cc(N2CCC(N(C)C)CC2)ccc1Nc1nccc(-c2c(-c3ccc(OCc4ccccc4)cc3)nc3sccn23)n1` [Example 80, 4-{6-[4-(benzyloxy)phenyl]imidazo[2,1-b][1,3]thiazol-5-yl}-N-{4-[4-(dimethylamino)piperidin-1-yl]-2-methoxyphenyl}pyrimidin-2-amine], the IC50 lay within 25 to 100 nM.

`COc1cc(N(C)C)ccc1Nc1nccc(-c2c(-c3ccc(OCc4ccccc4)c(OC)c3)nc3sccn23)n1` [Example 81, N^1-(4-{6-[4-(benzyloxy)-3-methoxyphenyl]imidazo[2,1-b][1,3]thiazol-5-yl}pyrimidin-2-yl)-2-methoxy-N^4,N^4-dimethylbenzene-1,4-diamine]: the IC50 was in the range of 25 to 100 nM.

On to `COc1cc(-c2nc3sccn3c2-c2ccnc(Nc3ccccc3CN3CCCC3)n2)ccc1OCc1ccccc1` [Example 82, 4-{6-[4-(benzyloxy)-3-methoxyphenyl]imidazo[2,1-b][1,3]thiazol-5-yl}-N-[2-(pyrrolidin-1-ylmethyl)phenyl]pyrimidin-2-amine], for which the IC50 is over 1000 nM.

Turning to `COc1cc(-c2nc3sccn3c2-c2ccnc(Nc3ccc(CN(C)C)cc3)n2)ccc1OCc1ccccc1` [Example 83], the IC50 lay in the range of 25 to 100 nM.

Regarding `COc1cc(N2CCC(N(C)C)CC2)ccc1Nc1nccc(-c2c(-c3ccc(OCc4ccccc4)c(OC)c3)nc3sccn23)n1` [Example 84, 4-{6-[4-(benzyloxy)-3-methoxyphenyl]imidazo[2,1-b][1,3]thiazol-5-yl}-N-{4-[4-(dimethylamino)piperidin-1-yl]-2-methoxyphenyl}pyrimidin-2-amine], the IC50 is under 25 nM.

With `COc1cc(-c2nc3sccn3c2-c2ccnc(Nc3cccc(CCN(C)C)c3)n2)ccc1OCc1ccccc1` [Example 85, 4-{6-[4-(benzyloxy)-3-methoxyphenyl]imidazo[2,1-b][1,3]thiazol-5-yl}-N-{3-[2-(dimethylamino)ethyl]phenyl}pyrimidin-2-amine], the IC50 is 25 to 100 nM.
